Measured values taken from paper PMC7898822, “RNA‐PROTACs: Degraders of RNA‐Binding Proteins” (Angewandte Chemie (International Ed. in English), 2020).

Experiments:
[1] = tested on: Lin28A; assay: Pull-down RNA ELISA, gymnosis, anti-Lin28A; format: cell-based, human; conditions: 3'-biotin conjugates, K562 cells, 2 µM, 24 h; streptavidin plate; vs mock or FUS antibody
Description: Humans express two paralogs of the protein, LIN28 (Lin28A) and LIN28B (Lin28B), that play key roles in development, metabolism, and pluripotency. ^[34] Lin28 proteins are abundantly expressed during embryonic development, as well as in several tumors and tumor‐derived cell lines. ^[35] […] In order to confirm that RNA‐PROTACs bind to endogenous Lin28 in cells, we performed a pull‐down RNA ELISA assay that we have previously described. ^[36] Thus, we conjugated a biotin group to the 3′ ends of ORN3P1 and ORN7P1 and added these reagents separately on to myelogenous leukemia K562 cells. We incubated lysates from treated cells on streptavidin‐coated plates so as to capture the RNA‐PROTACs present in the cell lysates. We then assayed for the presence of Lin28A in the plates using an anti‐Lin28A antibody and a negative control anti‐FUS antibody. […]
The protein extracts (12-17 µg) were run on a 4-20% SDS-PAGE and transferred on a nitrocellulose blotting membrane 0.22 µm (GE Healthcare) using the Trans-Blot transfer device (Biorad). […] The proteins were detected using the anti-lin28a antibody (Cell Signaling technology, D9F5), anti-lin28b antibody (Cell Signaling technology, 4196S), anti-rbfox1 (NovusBio, NBP2-13169SS), at 1:1000 and anti-hrnp c antibody […]
(§1) on a ChemiDoc MP imager (Biorad). The intensity of the signal was quantified using the ImageJ-Fiji software. […]

[2] = tested on: K562 cells; assay: Confocal microscopy, intracellular localization in K562 cells; format: cell-based, human; conditions: FAM labelled ORN3P1, 1 µM, 24 h
[3] = tested on: Lin28A; assay: Western blot of Lin28A in NT2/D1 cells; format: cell-based, human; conditions: 2 μM, three independent experiments
Description: (§2) Finally, we tested RNA‐PROTACs for their ability to degrade their target in two cell lines: the embryonic NT2/D1 cell line, which expresses high levels of Lin28A, ^[13a] and K562 cells which express Lin28A and Lin28B. […] Finally, we co‐treated K562 cells with ORN3P1 and MG132, a reversible inhibitor of the 26S proteasome. […] In order to explore the versatility of RNA‐PROTACs with non peptide‐based VHL ligands, we conjugated small‐molecule VH032 ^[38] to ORN3 via an amino linker to yield ORN3VH032 (Figure S1). […]

[4] = tested on: Lin28A; assay: Western blot of Lin28A in K562 cells; format: cell-based, human
Description: as §2

[5] = tested on: QKI (pDEST-Myc-QKI); assay: Ubiquitination assay of Myc-QKI (negative control RBP) in 22Rv1 cells; format: cell-based; conditions: pDEST-Myc-QKI and HA-Ub, 500 nM, 48 h
Method: Next, we investigated the ability of ORN3P1 and ORN7P1 to mediate ubiquitination of Lin28 in cells, using a previously described protocol. ^[32] Cells from the prostate cancer cell line 22RV1, which express very low levels of Lin28, were co‐transfected with two plasmids expressing pCMV‐myc‐Lin28A and HA‐tagged polyubiquitin (HA‐Ub).
After 48 h of incubation with ORN3P1 and ORN7P1, the tagged Lin28 (and the control QKI) was immunoprecipitated using an anti‐Myc antibody. The isolated protein was then analyzed by western blotting using the anti‐HA and anti‐c‐Myc antibodies. Consistent with other previously described PROTAC reagents,[ ^32 , ^33 ]
The protein extracts (12-17 µg) were run on a 4-20% SDS-PAGE and transferred on a nitrocellulose blotting membrane 0.22 µm (GE Healthcare) using the Trans-Blot transfer device (Biorad). Membranes were blocked with 5% milk and incubated with the primary antibody overnight at 4 °C. Membranes were washed with 0.05% PBS-T and reacted with the secondary antibody for 1 h in 5% milk. The proteins were detected using the anti-lin28a antibody (Cell Signaling technology, D9F5), anti-lin28b antibody (Cell Signaling technology, 4196S), anti-rbfox1 (NovusBio, NBP2-13169SS), at 1:1000 and anti-hrnp c antibody […]
(Abcam, AB133607) at 1:10000 dilutions. […]
as §1

For `CC[C@H](C)[C@H](NC(=O)[C@H](Cc1ccc(O)cc1)NC(=O)[C@@H]1C[C@@H](O)CN1C(=O)[C@H](C)NC(=O)[C@H](CC(C)C)NC(=O)CCCCCNC(=O)[C@@H](N)CSC1CC(=O)N(CCOP(=O)(S)OC[C@H]2O[C@@H](n3cnc4c(N)ncnc43)[C@H](OCCOC)[C@@H]2OP(=O)(S)OC[C@H]2O[C@@H](n3cnc4c(=O)[nH]c(N)nc43)[C@H](OCCOC)[C@@H]2OP(=O)(S)OC[C@H]2O[C@@H](n3cnc4c(=O)[nH]c(N)nc43)[C@H](OCCOC)[C@@H]2OP(=O)(S)OC[C@H]2O[C@@H](n3cnc4c(N)ncnc43)[C@H](OCCOC)[C@@H]2OP(=O)(S)OC[C@H]2O[C@@H](n3cnc4c(=O)[nH]c(N)nc43)[C@H](OCCOC)[C@@H]2OP(=O)(S)OC[C@H]2O[C@@H](n3cnc4c(N)ncnc43)[C@H](OCCOC)[C@@H]2OP(=O)(S)OC[C@H]2O[C@@H](n3cc(C)c(=O)[nH]c3=O)[C@H](OCCOC)[C@@H]2O)C1=O)C(=O)O` (stereo partly drawn) [ORN3P1], the Lin28A pull-down signal [1] was “strong signal for Lin28A protein”, the “intracellular presence by confocal microscopy” value [2] was “in the cytoplasm and nuclei of K562 cells” and the “reduction of Lin28A” value [3] was roughly 50%. For the same molecule, the “Lin28A suppression with MG132 co-treatment” value ([4]; K562 cells co-treated with 100 nM MG132, 48 h) was “largely attenuated Lin28A suppression”, the “suppression of Lin28A” value ([4]; K562 cells, highest concentration, 48 h, western blot, three independent experiments) was 50% and the “ubiquitination of QKI” value [5] was “showed no such effects”.
